Each block holds one compound with its values, some of them ahead of it.
Assays:
FIG-ROS(S) = molecular target: T1, FIG-ROS(S) (Homo sapiens, UniProt P08922); assay: Western blotting of phosphorylation in FIG-ROS(S) expressing BaF3 cells; format: cell-based
T1 construct: expressed in transfected cells; host or cells: BaF3 cells, retrovirally transduced, selected for IL3-independent growth
From the text: (§1) All antibodies were from Cell Signaling Technology, Inc. (Danvers, Mass.)
(§2) Since ROS, ALK, LTK, InsR, and IGF1R belong to the same family of tyrosine kinases, they may share similar structure in the kinase domain.

[1] = test system: BaF3 cells transduced with the FLT-3ITD retrovirus; assay: Western blotting of phosphorylation in BaF3 cells transduced with the FLT-3ITD retrovirus; format: cell-based
From the text: as §1, §2

BaF3 expressing FLT3ITD = assay: cells; conditions: for IC50: Mus musculus, BaF3, 72 h
Procedure: (§3) BaF3 and Karpas 299 cells were obtained from DSMZ (Deutsche Sammlung von Mikroorganismen and Zellkulturen GmbH, Germany). BaF3 cells, which need interleukin-3 to survive, were maintained at 37° C. in RPMI-1640 medium (Invitrogen) with 10% fetal bovine serum (FBS) (Sigma) and 1.0 ng/ml murine IL-3 (R&D Systems). Karpas 299 cells (a lymphoma cell line) were grown in RPMI-1640 with 10% FBS.
(§4) BaF3 cells were transduced with retrovirus encoding FIG-ROS(S), FIG-ROS(L), or FLT-3ITD (the Internal tandem duplication mutation in FLT3 causes AML leukemia), and selected for IL3 independent growth. Karpas 299 cells, which express NPM-ALK, was used as a positive control. Retroviruses were generated as previously described (see PCT Publication No. WO 2010/093928, incorporated by reference).
(§5) A MTS assay was performed using the CellTiter 96 Aqueous One Solution Reagent (Promega, Catalog No G3582). […] After 72 hours, 20 μl of the CellTiter 96 Aqueous One Solution Reagent was added into each well of a 96 well assay plate (flat bottom), and then 100 μl of cells grown with or without treatment. Media-only wells were used as controls. The 96 well plate was incubated for 1-4 hours at 37° C., and then viable cells were counted by reading the absorbance at 490 nm using a 96 well plate reader.

Karpas 299 cells [2] = assay: cells; conditions: for IC50: Homo sapiens, KARPAS-299, 72 h
Procedure: as §3, §4, §5

Karpas 299 cells [3] = assay: Flow cytometry, cleaved caspase-3 as apoptosis marker, Karpas 299; format: cell-based; conditions: in the presence of TAE-684, FIG. 19
From the text: (§6) The mechanism of death of the BaF3 and Karpas 299 cells was next assessed by measuring the percentage of cleaved-caspase 3 positive cells by flow cytometry assay using cleaved caspase-3 as a marker for apoptosis.

[4] = test system: BaF3 expressing FIG-ROS(S); assay: MTS assay, growth of BaF3 cells expressing FIG-ROS(S); format: cell-based; conditions: for IC50: Mus musculus, BaF3, 72 h
Procedure: as §3, §4, §5

[5] = test system: BaF3 expressing FIG-ROS(L); assay: MTS assay, growth of BaF3 cells expressing FIG-ROS(L); format: cell-based; conditions: for IC50: Mus musculus, BaF3, 72 h
Procedure: as §3, §4, §5

[6] = test system: BaF3 cells expressing FIG-ROS(L); assay: Flow cytometry, cleaved caspase-3 as apoptosis marker, BaF3 FIG-ROS(L); format: cell-based; conditions: in the presence of TAE-684, FIG. 19
From the text: as §6

[7] = test system: BaF3 cells expressing FIG-ROS(S); assay: Flow cytometry, cleaved caspase-3 as apoptosis marker, BaF3 FIG-ROS(S); format: cell-based; conditions: in the presence of TAE-684, FIG. 19
From the text: as §6

[8] = test system: BaF3 cells transduced with neo-myc; assay: MTS assay, growth of BaF3 cells transduced with neo-myc (negative control); format: cell-based; conditions: Mus musculus, 72 hours, second experiment only
Procedure: as §3, §5

FIG-ROS(L) = FIG-ROS(L) (Homo sapiens, UniProt P08922); assay: Western blotting of phosphorylation in FIG-ROS(L) expressing BaF3 cells; format: cell-based
From the text: as §1, §2

ALK in Karpas 299 cells = assay: Western blotting of phosphorylation in Karpas 299 cells; format: cell-based; conditions: 0, 10, 50, or 100 nM for three hours, FIG. 20
From the text: as §1, §2

[9] = 0, 10, 50, or 100 nM for three hours, FIG. 20
[10] = 72 hours, first of two experiments
[11] = 72 hours, second of two experiments
[12] = same concentration of each, 0-1.0 uM, FIG. 21A/21B
[13] = 0, 0.1, 0.3, or 1.0 uM for three hours, FIG. 22

phosphorylation of FIG-ROS(S) (FIG-ROS(S); [9]): inhibited
phosphorylation of STAT3, AKT, and ERK, and Shp2 (FIG-ROS(S); [9]): inhibited
IC50 (BaF3 expressing FLT3ITD; first of two experiments): 419 nM
IC50 (BaF3 expressing FLT3ITD; second of two experiments): 316 nM
IC50 (Karpas 299 cells [2]; first of two experiments): 4.85 nM
IC50 (Karpas 299 cells [2]; second of two experiments): 4.36 nM
IC50 [4, 10]: 10.2 nM
IC50 [4, 11]: 15 nM
IC50 [5, 10]: 1.78 nM
IC50 [5, 11]: 2.84 nM
IC50 [8]: 1640 nM
phosphorylation of FIG-ROS(L) (FIG-ROS(L); [9]): inhibited
phosphorylation of STAT3, AKT, and ERK, and Shp2 (FIG-ROS(L); [9]): inhibited
SMILES: COc1cc(N2CCC(N3CCN(C)CC3)CC2)ccc1Nc1ncc(Cl)c(Nc2ccccc2S(=O)(=O)C(C)C)n1 [TAE-684]
phosphorylation of STAT3, AKT, and ERK, and Shp2 [1, 9]: not affected
cellular growth response in the presence of TAE-684 (BaF3 expressing FLT3ITD; 0-1000 nM, 72 hours, FIG. 18): not susceptible
cellular growth response in the presence of TAE-684 (Karpas 299 cells [2]; 0-1000 nM, 72 hours, FIG. 18): stopped growing
mechanism of death, cleaved-caspase 3 positive cells (apoptosis) (Karpas 299 cells [3]): did not die by apoptosis
cellular growth response in the presence of TAE-684 ([4]; 0-1000 nM, 72 hours, FIG. 18): stopped growing
sensitivity of cellular growth, TAE-684 compared with crizotinib [4, 12]: more sensitive to TAE-684 than to crizotinib
cellular growth response in the presence of TAE-684 ([5]; 0-1000 nM, 72 hours, FIG. 18): stopped growing
sensitivity of cellular growth, TAE-684 compared with crizotinib [5, 12]: more sensitive to TAE-684 than to crizotinib
mechanism of death, cleaved-caspase 3 positive cells (apoptosis) [6]: die by apoptosis
mechanism of death, cleaved-caspase 3 positive cells (apoptosis) [7]: die by apoptosis
ALK and ERK phosphorylation (ALK in Karpas 299 cells): inhibited

phosphorylation of FIG-ROS(S) (FIG-ROS(S); [13]): inhibited
phosphorylation of STAT3 and ERK (FIG-ROS(S); [13]): inhibited
phosphorylation of FIG-ROS(L) (FIG-ROS(L); [13]): inhibited
phosphorylation of STAT3 and ERK (FIG-ROS(L); [13]): inhibited
SMILES: C[C@@H](Oc1cc(-c2cnn(C3CCNCC3)c2)cnc1N)c1c(Cl)ccc(F)c1Cl [crizotinib]
phosphorylation of STAT3 and ERK [1, 13]: not affected

Source: patent US11099188B2, “ROS kinase in lung cancer” (CELL SIGNALING TECHNOLOGY, INC., priority 2006, dated 2021)
